In BindingDB's records for doi:10.1021/ml400370w (The Scripps Research Institute, 2014) one finds IC50 data, which are given here for six molecules.

A short description of the experiment: Antagonist activity against CCR5 receptor in human TZM-bl cells assessed as inhibition of HIV-1 JR-FL-induced cell-cell fusion between viral envelope protein expressing human HEK293 cells to TZM-bl cells after 48 hrs by luciferase reporter gene assay. In general terms: A reporter such as luciferase makes a cellular process visible.
For orientation: IC50 means the concentration that gives 50% inhibition. For `Cc1nnc(CCCCCCCCCCn2cc(COCCOCCOCCOCCOCc3ccc(C(=O)NCCCNC(=O)OC(C)(C)C)cc3)nn2)n1C1CC2CCC(C1)N2CC[C@H](NC(=O)C1CCC(F)(F)CC1)c1ccccc1` (stereo partly specified), the IC50 is 3 nM.

Turning to `Cc1nnc(CCCCCCCCCCn2cc(COCCOCCOCCOCCOCc3ccc(C(=O)N4CCC4=O)cc3)nn2)n1C1CC2CCC(C1)N2CC[C@H](NC(=O)C1CCC(F)(F)CC1)c1ccccc1` (stereo partly specified), the 50% inhibitory concentration (IC50) amounted to 2.6 nM.

As to `Cc1nnc(C(C)C)n1C1CC2CCC(C1)N2CC[C@H](NC(=O)CCCCCCCCCCn1cc(COCCOCCOCCOCCOCc2ccc(C(=O)N3CCC3=O)cc2)nn1)c1ccccc1` (stereo partly specified), the IC50 stood at 27 nM.

On to `Cc1nnc(CCCCCCCCCCN=[N+]=[N-])n1C1CC2CCC(C1)N2CC[C@H](NC(=O)C1CCC(F)(F)CC1)c1ccccc1` (stereo partly specified), for which the IC50 stood at 0.96 nM.

As for `Cc1nnc(C(C)C)n1C1CC2CCC(C1)N2CC[C@H](NC(=O)COCCOCCOCCN=[N+]=[N-])c1ccccc1` (stereo partly specified), the half-inhibitory concentration (IC50) is above 1000 nM.

With `Cc1nnc(C(C)C)n1C1CC2CCC(C1)N2CC[C@H](NC(=O)CCCCCCCCCCN=[N+]=[N-])c1ccccc1` (stereo partly specified), the IC50 was 360 nM.
